Data on 19 compounds can be found in patent US5849801A, “4-amino-5-oxy-2,6,6-trimethyl-2-cycloheptene compounds” (Tokyo Tanabe Company Limited, priority 1995, dated 1998).

The structures appear in SMILES notation. Where a name gives a salt, the structure may show the parent alone.

Assay [1] deals with histamine-induced guinea pig bronchoconstriction. Description: Effect on histamine-induced guinea pig bronchoconstriction models. In kind it is in vivo, male Hartley guinea pigs. The settings on record: inhalation for 30 seconds, hydrochloride, histamine 3 μg/kg i.v. after 2 minutes. The protocol: After urethane anesthetization of male Hartley guinea pigs (body weight: 350~450 g, 5 per group, Nihon Crea Co.), a small cannula was inserted into trachea. Next, gallamine triethiodide (1 mg/kg) was intravenously administered, and the tracheal cannula was connected to a constant volume respirator. The artificial respiration was conducted with an air volume per breath of 7~10 ml, a breath frequency of 60/min and a lung application pressure of 10 cm water. The volume of air overflowing from the legs on the cannula side was recorded on a polygraph (RM6100: product of Nihon Koden Co.) with a model 7020 bronchospasm transducer (product of Ugo Basile). Hydrochloride of the test compounds were dissolved in physiological saline, and inhalation was performed with reference to the method of Minami et al. […] The inhalation load apparatus was prepared by directly incorporating an ultrasonic nebulizer into an artificial respiration circuit (Omron ultrasonic aspirator NE-U11B, product of […] Electric Co.). The test compound (mg/0.5 ml) was administered by inhalation for 30 seconds, and after 2 minutes histamine (3 μg/kg) was intravenously administered and the air overflow volume was measured. The bronchoconstriction rate was calculated as a percentage with 100 being the height of contraction when the airway was completely constricted. The inhibition rate was calculated by dividing the contraction rate of the test compound group by the contraction rate of the control group.

The subject of assay [2] is rat peripheral arterial occlusion models. The assay can be described thus: Effect on rat peripheral arterial occlusion models (5% lactic acid induced). In kind it is in vivo, SD rats. The following applies: 5 mg/kg, i.v., lower leg lesions at 14 days. Here is the method: Models were prepared following the method of Iwamoto et al. (Iwamoto, M. et al., Japanese Pharmacology & Therapeutics, Vol. 14, Suppl. 5, p. 41, 1986). Upon minimal dissection of the femoral regions of SD rats (6 per group) with a body weight of 250~350 g under Nembutal anesthesia, 0.1 ml of 5% lactic acid was administered intraarterially. The rats were raised for 14 days under normal conditions, and observed for lesions of the lower legs. The grading for the lesions was: "1" for nigrities only at the nail tips, "2" for nigrities up to the digits, "3" for necrosis of the digits, and "4" deciduation of the digits. Each of the digits of the lower legs on the side where lactic acid had been administered were graded, and the overall grade was determined as the index of lesions. The disorder inhibition rate was determined by dividing the index of lesions in the drug-administered group by the index of lesions of the control group. The drugs were dissolved in physiological saline or dimethylsulfoxide, and injected through the caudal vein 5 minutes prior to injection of the 5% lactic acid.

The subject of assay [3] is platelet aggregation induced by arachidonic acid. The assay can be described thus: Inhibiting effect on platelet aggregation (in vitro), arachidonic acid as aggregating agent. It is filed as cell-based, Japanese white male house rabbits. The settings on record: Oryctolagus cuniculus; arachidonic acid 68.6 μg/ml, 37° C., platelet suspension. Here is the method:
(§1) Platelet rich plasma was prepared from Japanese white male house rabbits (body weight: 2.5~3.0 kg) following the method of Suzuki et al. (Suzuki, K. et al., The Clinical Report, Vol. 21, No. 13, p. 5263, 1987). The resulting platelet rich plasma solution was appropriately diluted with a Tris-Tyrode buffer solution (pH 7.4) to prepare a 4×10^5 platelet/μl platelet suspension to be used for the test. The platelet aggregation was measured using a platelet aggregometer (NBS Hematoracer 601, product of Nikoh Bioscience Co.). Specifically, 250 μl of the platelet suspension, 5 μl of a 96 mM calcium chloride solution and 5 μl of the test compound solution dissolved in methanol were added to a cuvette, and after incubating for one minute at 37° C., 20 μl of an aggregating agent was added and the maximum degree of aggregation occurring was determined. The aggregating agents used were platelet activating factor (PAF) (2.5 ng/ml) and arachidonic acid (68.6 μg/ml). The 50% inhibition concentration (IC50) was calculated from the results of measurement with various concentrations of each test compound.

Assay [4] deals with calcium contraction of the thoracic aorta. The assay can be described thus: Effect on calcium contraction (in vitro), thoracic aorta specimens. More on the design: species or system Male SD rats. The following applies: Rattus norvegicus; 1×10^-7 M in dimethylsulfoxide; 0.3 mM calcium chloride, 80 mM KCl buffer. Here is the method:
This was investigated according to the method of Ishibashi, et al. (Ishibashi, A. et al., Folia Pharmacologica Japonica, Vol. 82, p. 361, 1983). Male SD rats of body weight approximately 300 g were used to prepare thoracic aorta extract specimens, which were suspended and immobilized in a organ bath containing 10 ml of Krebs-Henseleit buffer solution at 37° C. through which a mixed gas of oxygen (95%) and carbon dioxide (5%) had been passed. After equilibrating the specimens, they were equilibrated in a buffer solution without calcium chloride and then in an isotonic calcium-free 80 mM potassium chloride buffer solution replaced with potassium ions, and a resting tension of 0.2 g was applied. Contraction was induced by addition of 0.3 mM calcium chloride. The test compounds were added 10 minutes prior to addition of the calcium solution. The percent inhibition of the test compounds were calculated using the first contraction as the control (100% contraction). The test compounds were used for the test as solutions in dimethylsulfoxide at a 1×10^-7 M concentration.

Assay [5] deals with blood pressure of anesthetized rats. Description: Effect on blood pressure of anesthetized rats. The settings on record: Rattus norvegicus, intravenous, diastolic, urethane anesthesia, read-out: Reduction of blood pressure (%). In kind it is in vivo, Male SD rats. The protocol:
Male SD rats (body weight: 250~350 g, product of Nihon Crea Co.) were placed under urethane anesthesia and then a sphygmomanometric pressure transducer was inserted into the left cervical artery and recording was made on a polygraph (RM6100, product of Nihon Koden Co.) using a strain pressure […], product of Nihon Koden Co.). The test compounds were dissolved in physiological saline and administered intravenously. The change in blood pressure was indicated as the reduction rate from the initial value of diastolic blood pressure just prior to administration of the test compound.

The subject of assay [6] is platelet aggregation induced by platelet activating factor (PAF). Description: Inhibiting effect on platelet aggregation (in vitro), platelet activating factor (PAF) as aggregating agent. In kind it is cell-based, Japanese white male house rabbits. The following applies: Oryctolagus cuniculus; PAF 2.5 ng/ml, 37° C., platelet suspension. Here is the method: as §1

As for `CC1=CC(N2CCCCC2)C(O)C(C)(C)CC1=O` (single isomer, unassigned; (-)) [(-) Compound of Example 35, (-)-5-hydroxy-4-piperidino-2,6,6-trinethyl-2-cyclohepten-1-one], in assay [1] (10.0 mg/0.5 ml), the Brochoconstriction inhibition rate was 64%.

For orientation: IC50 means the concentration needed to halve the response being measured. Broadly, the inhibition is the change of the read-out against control, counted positive when it falls. On to `CC1=CC(NCc2ccccc2)C(O)C(C)(C)CC1=O` (centres unmarked) [Example 1, 4-benzylamino-5-hydroxy-2,6,6-trimethyl-2-cyclohepten-1-one], for which the Inhibition rate in assay [2] (in physiological saline) was found to be 42%. The compound also registered an IC50 in assay [3] of 100 µM. In addition, the inhibition at 0.1 µM in assay [4] is 48%.

On to `CC1=CC(NCCc2ccccc2)C(O)C(C)(C)CC1=O` (centres unmarked) [Example 2, 4-(2-phenylethylamino)-5-hydroxy-2,6,6-trimethyl-2-cyclohepten-1-one], for which, in assay [5], the inhibition in vivo at 1 mg/kg is 16% and the inhibition in vivo at 3 mg/kg was determined as 31%.

Take `CCOC(=O)c1ccc(CNC2C=C(C)C(=O)CC(C)(C)C2O)cc1` (centres unmarked) [Example 4, 5-hydroxy-4-(4-ethoxycarbonylbenzylamino)-2,6,6-trimethyl-2-cyclohepten-1-one]: in assay [4], the inhibition at 0.1 µM stood at 33%.

As for `CC1=CC(Nc2ccccc2)C(O)C(C)(C)CC1=O` (centres unmarked) [Example 5, 5-hydroxy-4-phenylamino-2,6,6-trimethyl-2-cyclohepten-1-one], the Inhibition rate in assay [2] (in DMSO) was determined as 35%.

For the compound `CC1=CC(NC2CCCC2)C(O)C(C)(C)CC1=O` (centres unmarked) [Example 7, 4-cyclopentylamino-5-hydroxy-2,6,6-trimethyl-2-cyclohepten-1-one hydrochloride], the inhibition in vivo at 10 mg/kg in assay [5] worked out at 34%.

In the case of `CC1=CC(NC2CCCCC2)C(O)C(C)(C)CC1=O` (centres unmarked) [Example 8, 4-cyclohexylamino-5-hydroxy-2,6,6-trimethy-2-cyclohepten-1-one hydrochloride], in assay [5], the inhibition in vivo at 10 mg/kg came out at 45%.

Take `CCCCNC1C=C(C)C(=O)CC(C)(C)C1O.Cl` (centres unmarked) [Example 9, 4-(1-butylamino)-5-hydroxy-2,6,6-trimethyl-2-cyclohepten-1-one hydrochloride]: the Brochoconstriction inhibition rate in assay [1] (1.0 mg/0.5 ml) is on record as 57%. In assay [5], the inhibition in vivo at 1 mg/kg turned out to be 14%, the inhibition in vivo at 3 mg/kg came out at 32% and the inhibition in vivo at 10 mg/kg was found to be 51%.

For `COCCNC1C=C(C)C(=O)CC(C)(C)C1O` (centres unmarked) [Example 10, 5-hydroxy-4-(2-methoxyethylamino)-2,6,6-trimethyl-2-cyclohepten-1-one], in assay [4], the inhibition at 0.1 µM is 32%.

Turning to `CC1=CC(NC(C)(C)C)C(O)C(C)(C)CC1=O` (centres unmarked) [Example 12, 5-hydroxy-4-(tert-butylamino)-2,6,6-trimethyl-2-cyclohepten-1-one], the inhibition in vivo at 10 mg/kg in assay [5] amounted to 33%.

As to `CCN(CC)C1C=C(C)C(=O)CC(C)(C)C1O` (centres unmarked) [Example 13, 4-diethylamino-5-hydroxy-2,6,6-trimethyl-2-cyclohepten-1-one], the inhibition in vivo at 10 mg/kg in assay [5] is 28%.

The compound `CC1=CC(N2CCCC2)C(O)C(C)(C)CC1=O.Cl` (centres unmarked) [Example 15, 5-hydroxy-4-pyrrolidino-2,6,6-trimethyl-2-cyclohepten-1-one hydrochloride] had a Brochoconstriction inhibition rate in assay [1] (3.0 mg/0.5 ml) of 73%. The inhibition in vivo at 10 mg/kg in assay [5] came out at 26%.

Turning to `CC1=CC(N2CCCCCC2)C(O)C(C)(C)CC1=O` (centres unmarked) [Example 17, 4-hexamethyleneimino-5-hydroxy-2,6,6-trimethyl-2-cyclohepten-1-one], the inhibition in vivo at 10 mg/kg in assay [5] stood at 42%.

For `CC1=CC(N2CCOCC2)C(O)C(C)(C)CC1=O` (centres unmarked) [Example 18, 5-hydroxy-4-morpholino-2,6,6-trimethyl-2-cyclohepten-1-one], in assay [6], the IC50 was found to be 98 µM. Besides, in assay [4], the inhibition at 0.1 µM came to 39%.

Turning to `CC1=CC(N2CCN(C)CC2)C(O)C(C)(C)CC1=O` (centres unmarked) [Example 22, 5-hydroxy-4-(4-methylpiperazino)-2,6,6-trimethyl-2-cyclohepten-1-one], the Brochoconstriction inhibition rate in assay [1] (3.0 mg/0.5 ml) is given as 17%. Besides, the inhibition at 0.1 µM in assay [4] was determined as 48%.

On to `CC1=CC(N2CCC(O)CC2)C(O)C(C)(C)CC1=O` (centres unmarked) [Example 23, 4-(4-hydroxypiperidino)-5-hydroxy-2,6,6-trimethyl-2-cyclohepten-1-one], for which, in assay [1] (3.0 mg/0.5 ml), the Brochoconstriction inhibition rate is reported as 23%.

The compound `CC1=CC(N2CCC3(CC2)OCCO3)C(O)C(C)(C)CC1=O` (centres unmarked) [Example 26, 4-(1,4-dioxa-8-aza-spiro[5.4]decan-8-yl)-5-hydroxy-2,6,6-trimethyl-2-cyclohepten-1-one] registered a Brochoconstriction inhibition rate in assay [1] (3.0 mg/0.5 ml) of 53%. In assay [3], the IC50 was 36 µM.

Regarding `CC1=CC(N(C)Cc2ccccc2)C(O)C(C)(C)CC1=O` (centres unmarked) [Example 28, 5-hydroxy-4-(N-methylbenzylamino)-2,6,6-trimethyl-2-cyclohepten-1-one], it took 11 µM to reach half-maximal inhibition in assay [3] (IC50).

`CC1=CC(N2CCCCC2)C(O)C(C)(C)CC1=NO` (centres unmarked) [Example 30, 5-hydroxy-4-piperidino-2,6,6-trimethyl-2-cyclohepten-1-one oxime] showed a Brochoconstriction inhibition rate in assay [1] (3.0 mg/0.5 ml) of 42%.
